Test results reported in patent publication US10674728B2, “Pesticidal compositions” (SYNGENTA PARTICIPATIONS AG, priority 2016, dated 2020).

How the values were obtained:
[1] = system: Pyricularia orzyae; experiment: microbe, parasite or virus in culture; type: cell-based; conditions: 72 h, read-out: Observed % activity
[2] = system: Rhizoctonia solani; experiment: Tests against Rhizoctonia solani (foot rot, damping-off), growth inhibition in microtiter plate; type: cell-based; conditions: 72 hrs, 24° C., read-out: Observed % activity
[3] = system: Glomerella lagenarium syn. Colletotrichum lagenarium; experiment: Tests against Glomerella lagenarium (anthracnose of cucurbits), growth inhibition in microtiter plate; type: cell-based; conditions: Colletotrichum orbiculare, 72 hrs, 24° C., read-out: Observed % activity
[4] = system: Rice (Oryza sativa L.) of the local variety ADT45; experiment: Heat stress mitigation field trials in rice, grain yield; type: in vivo; conditions: 10 gAl/Ha, foliar spray at panicle formation (BBCH 32), hot season
Protocol: Tests were conducted to determine the heat stress mitigation efficacy of compositions of the present invention.
Trials were conducted in the Tamil Nadu rice production area (India) during the hot season in 2016.
Rice (Oryza sativa L.) of the local variety ADT45 was mechanically transplanted at four plants per hill with a plant spacing of 16 cm and a row spacing of 30 cm. All trials were performed in good level of water management. Fertilizer was applied in accordance with the best local practice across the trial area.
Commercial treated seeds (no neonicotinoids as seed treatments) were used. Weed control was according to the best local practice in order to provide excellent weed control. Foliar fungicides and insecticides were applied according to common practice (no products that contain neonicotinoids or strobilurins).
The trial design was a randomized bloc design. Plot size was 40 m^2 (4 m width [12 rows] by 10 m row length). Each trial had four replicates. In total, eleven trials were conducted.
Treatments were applied with small-plot hand-held boom sprayer as broadcast foliar spray in close proximity to leaf/canopy surface (25-40 cm distance from the crop), at the following different treatment timings: panicle initiation (BBCH 30), panicle formation (BBCH 32), spikelet differentiation (BBCH 35) and meiosis (BBCH 39).

[5] = (A) Formula (Ia) 10.0 ppm alone

CC1COC(Cn2cncn2)(c2ccc(Oc3ccc(Cl)cc3)cc2Cl)O1 (stereo not shown) [Difenoconazole, difenoconazole, reference compound]
inhibition at 0.0625 ppm [1]: 34% | inhibition at 0.25 ppm [1]: 71% | inhibition at 2 ppm ([2]; (B) Difenoconazole 2.0 ppm alone): 47% | inhibition at 0.25 ppm ([3]; (B) Difenoconazole 0.25 ppm alone): 36%

COc1cccc(Nc2nc(F)nc3[nH]cnc23)c1 [Formula (Ia)]
inhibition at 0.1563 ppm [1]: 0% | inhibition at 10 ppm [1]: 3% | inhibition at 5 ppm ([2]; (A) Formula (Ia) 5.0 ppm alone, inhibition of growth, photometric): 7% | inhibition at 10 ppm [2, 5]: 0% | inhibition at 20 ppm ([2]; (A) Formula (Ia) 20.0 ppm alone): 0% | inhibition at 0.625 ppm ([3]; (A) Formula (Ia) 0.6250 ppm alone, inhibition of growth, photometric at 620 nm): 5% | inhibition at 1.25 ppm ([3]; (A) Formula (Ia) 1.25 ppm alone): 0% | inhibition at 2.5 ppm ([3]; (A) Formula (Ia) 2.5 ppm alone): 2% | inhibition at 5 ppm ([3]; (A) Formula (Ia) 5.0 ppm alone): 0% | inhibition at 10 ppm [3, 5]: 0% | Average yield increase compared to UTC [4]: 4.4% | Yield at 14% MC [4]: 6820 kg/ha
